Tests used:
[1] = tested on: CCI neuropathic pain (mechanical allodynia); test: Chronic constriction injury (CCI) model of neuropathic pain in rat; format: in vivo; details: for observed side effects in dosed CCI-rats: single oral dose
Description: Chronic Constriction Injury (CCI) Model of Neuropathic Pain in Rat. The CCI model is one of the most commonly used mono-neuropathic pain model firstly described in details by Bennett and Xie (Bennett CJ, Xie YK. Pain. 1988;33(1):87-107). It mimics important clinical chronic pain symptoms such as mechanical allodynia and thermal hyperalgesia, Chronic constriction injury of the sciatic nerve was produced by tying four loose ligatures around the left sciatic nerve according to the method of Bennett and. Xie. […] Calibrated von Frey filaments were used to determine the lowest mechanical (tactile) threshold required to evoke a brisk paw withdrawal reflex in the rat hindpaws. Rats were allowed to acclimatize in wire mesh cages for 15-20 min prior to von Frey testing. Assessment of paw withdrawal thresholds (PWTs) using von Frey filaments was undertaken prior to CCI-surgery (pre-surgery baseline on day 0). Before the drug dosing on day 14, the pre-dose baseline was recorded for each rat. […] Drug-naïve CCI-rats (n=4 - 6 per group) were used. The oral (PO) gavage vehicle was either 10% (w/v) Povidone K25 in water for PO dosing, or 18% (w/v) CrosPovidone in water for PO dosing, or 0.5% CMC-Na/0.1% Tween 80in distilled water for PO dosing. The positive control gabapentin was dissolved in the vehicle and orally given at 100 mg/kg (by oral gavage). Test article was dissolved or suspended in the vehicle and orally given at 25, 50, 100 and 150 mg/kg. Each CCI-rat was administered a single oral dose of test article, gabapentin or vehicle control, 2 hours before assessment of PWT.

[2] = Rat pharmacokinetics (IV and PO, plasma); format: in vivo; details: male, CD IGS, PO 100 mg/kg, mean
Method: Rat Pharmacokinetics. Compound I was dosed to nonfasted male CD IGS rats (weighting 180-250 g, Charles River Laboratories) by single intravenous (IV, n=3/group) or oral gavage (PO, n=4/group, including control rat group for drug-free blood and brain collection) administration at a nominal dose levels of 3 mg/kg (IV) or 5 mg/kg (IV) and 10, 50, 100 mg/kg (PO) respectively. Compound was formulated in either DMSO/Solutol® HS 15/phosphate buffered saline, pH 7.4 (PBS) for both IV and PO dosing, or 10% (w/v) Povidone K12 in water for IV dosing or 10% (w/v) Povidone K25 in water for PO dosing, or 18% (w/v) CrosPovidone in water for PO dosing. An intravenous profile was obtained by taking serial or terminal blood samples at 3, 10, 30, 60, 120, 240, 360, 1440 min post dose. An oral profile was obtained by taking serial or terminal blood samples at 10, 30, 60, 120, 240, 360, 480, 1440 min post dose.
Plasma Sample Collection from Rats. Animals were sedated under general inhalant anesthesia (3% isoflurane) for blood collection by cardiac puncture. […]
Plasma and brain samples were subjected to quantitative analysis by LC-MS/MS using compound-specific mass transitions. […] The concentrations of the test compound in brain (ng/g brain tissue) and in plasma (ng/mL) as well as the ratio of the brain concentration and the plasma concentration at each time point were determined and reported.

[3] = Accelerated stability test (XRPD and Raman); format: physicochemical; details: 1 week
Method: X-ray Powder Diffraction (XRPD). Approximately 2 mg of sample was gently compressed on the XRPD zero back ground single obliquely cut silica sample holder. The sample was then loaded into a D/MAX 2200 X-ray powder diffractometer (Rigaku) or a Philips X-Pert MPD diffractometer and analyzed using the following experimental conditions (Tube anode: Cu; Generator tension: 40 kV; Tube current: 40 mA; Wavelength alphal: 1.54056 Å; Wavelength alpha2: 1.5444 Å; Start angle [2 theta]: 5; End angle [2 theta]: 50; and Continuous scan). For suspected novel forms a slightly slower scan speed was used over a range of 4-40°2θ.
Raman spectroscopy. Samples were analyzed by a Nicolet Almega XR Dispersive Raman Microscope for its Raman spectrum using the following conditions (Exposure Time: 1.0 s; Acquisition No: 10; Pinhole Size: 25, 50 or 100 μm; Wavelength range: 2000˜300 cm^−1 (single grating); Laser: He-Ne 780 nm 100% power; Objective: 20×/0.40 or 50×/0.75 (magnifier/numerical aperture number)). Then the measured Raman spectra were corrected by baseline subtraction using the software OMNIC™v7.3.

[4] = tested on: CFA-induced inflammatory pain; test: Rat CFA-induced inflammatory pain model; format: in vivo; details: 50 μL of 1 mM s.c. into the paw 3 hours after CFA
Method: Rat CFA-induced Inflammatory Pain Model. Hyperalgesia was induced by subcutaneously injecting 50 μL of CFA (Sigma-Aldrich, St. Louis, Mo., USA) into the plantar surface of the left hind paw of the rats using a 30-gauge hypodermic needle under sevoflurane anesthesia. The classical signs of inflammation, including edema and redness, for up the last day of tests were recorded. To assess the effect of test article on CFA-induced inflammatory pain, the rats were anesthetized with sevoflurane 3 hours after CFA injection and then injected 50 μL of either 1 mM test article (n=6) or Saline (n=4) subcutaneously (S.C.) into the same site as the CFA injection, using a 30-gauge hypodermic needle under sevoflurane anesthesia, according to published method (Ueda K., et al, J Pharmacol. Sci., 2010; 112(4):438-43). Paw withdrawal latencies (thermal hyperalgesia) are measured before and at […] 2, 4, and 7 days after CFA injection. Mechanical thresholds were also measured in the same way with either Formula 1 compound (n=6) or Saline (n=4) at similar different time points (for example, 1, 3 hour and 3 days). The noxious heat and mechanical thresholds were separately measured in each group of rats. The threshold was measured 3-5 times in each rat and then averaged.

[5] = tested on: SNL neuropathic pain (mechanical allodynia); test: Spinal nerve ligation (SNL) mono-neuropathic pain model in rat; format: in vivo; details: SNL rats, oral administration
Method: Spinal Nerve Ligation (SNL) Mono-Neuropathic Pain Model in Rat. The surgical procedure will be performed according to the method firstly described by Kim and Chung (Kim SH, Chung JM. Pain. 1992;50(3):355-63.). This procedure will result in tactile allodynia in the left hindpaw. […] The dose-reverse anti-allodynia effects of test compound: on day 14 after surgery, rats were treated with test article at one of four doses, vehicle or positive control by oral gavage, and PWT was determined by calibrated von Frey filaments at time points of 0 (right before the drug dosing, Pre-Dose Baseline), 0.5, 1, 2, 4 and 6 hr. The anti-allodynia effects of repeated administration of test article: Administration of test article was started on day 7 after surgery, once a day for 7 days. PWT was determined by calibrated von Frey filaments, 2 hour after test article dosing each day. After 7 days dosing, the measurement were continued, every other day without compound dosing for another 7 days. PWT was determined at the time points as given above.

TrkA (human full length) = biological target: T1, TrkA (human full length) (Homo sapiens, UniProt P04629); test: PathHunter whole cell functional assay, NGF stimulated TrkA activation (U2OS); format: cell-based; details: U2OS PathHunter cells, mean of triplicate; read-out: cellular IC50, NGF stimulated TrkA activation
T1 construct: expressed recombinantly on the intracellular C-terminus of TrkA (human full length); host or cells: U2OS
T1 sequence (P04629 33-796): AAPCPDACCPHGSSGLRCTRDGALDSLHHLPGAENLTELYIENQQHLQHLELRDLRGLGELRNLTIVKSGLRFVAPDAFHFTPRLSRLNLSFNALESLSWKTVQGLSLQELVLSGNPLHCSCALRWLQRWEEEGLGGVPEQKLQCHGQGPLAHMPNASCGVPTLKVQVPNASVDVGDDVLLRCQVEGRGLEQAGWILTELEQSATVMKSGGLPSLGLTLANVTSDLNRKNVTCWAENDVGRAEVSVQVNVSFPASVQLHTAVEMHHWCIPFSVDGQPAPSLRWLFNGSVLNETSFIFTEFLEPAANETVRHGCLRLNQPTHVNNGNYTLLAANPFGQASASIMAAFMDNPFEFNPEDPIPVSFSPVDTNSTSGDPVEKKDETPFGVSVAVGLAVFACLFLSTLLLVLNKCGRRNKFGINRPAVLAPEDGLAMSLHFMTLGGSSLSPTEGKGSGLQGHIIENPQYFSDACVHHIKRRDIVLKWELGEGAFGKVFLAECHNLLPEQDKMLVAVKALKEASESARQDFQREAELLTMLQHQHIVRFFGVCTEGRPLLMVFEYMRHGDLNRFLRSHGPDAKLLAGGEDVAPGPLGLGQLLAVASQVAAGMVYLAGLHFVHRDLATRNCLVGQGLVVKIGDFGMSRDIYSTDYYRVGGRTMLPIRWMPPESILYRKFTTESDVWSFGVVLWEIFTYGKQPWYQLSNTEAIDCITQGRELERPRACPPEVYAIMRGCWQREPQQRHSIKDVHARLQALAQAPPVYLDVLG
Description: Compound inhibition in a live, whole cell based functional assay: There are several methods to measure whole length TrkA activation stimulated by its natural ligand or agonist NGF in live cells. For example, the PathHunter Profiling services offered by DiscoveRx (Fremont, Calif.). The PathHunter technology is an adaptation of enzyme fragment complementation that provides a novel, generic functional cell-based assay format for detecting protein-protein interaction. In this cell-based assay approach, with U2OS cell background, a small peptide epitope (PK) is expressed recombinantly on the intracellular C-terminus of TrkA (human full length). This is co-expressed with a larger sequence, termed enzyme acceptor (EA) that is attached to a cytoplasmic protein SHC1 which will interact with TrkA intracellularly. NGF induced activation of TrkA receptor causes either homo- or hetero-dimerization of TrkA resulting in cross-phosphorylation. The SHC1-EA fusion protein then binds the phosphorylated TrkA receptor forcing complementation of the PK and EA fragment. This interaction generates an active beta-galactosidase enzyme, which is detected using a chemiluminescent substrate.

Compound	observed side effects in dosed CCI-rats [1]	bioavailability [2] [%]	stability by XRPD and Raman ([3]; 40° C./75% RH)	stability by XRPD and Raman ([3]; 80° C.)	analgesic effect (FIG. 1) [4]	effect on mechanical allodynia (FIG. 2) ([1]; CCI rats, single oral dose 25, 50, 100 and 150 mg/kg, PWT 2 hours after dosing)	effect on mechanical allodynia [5]	IC50 (TrkA (human full length)) [nM]
NCC1(CC(=O)O)CCCCC1 [gabapentin, reference compound]	drowsiness or motor incoordination	–	–	–	–	–	–	–
O=C([O-])c1ccc(Nc2cc(N3CCN(C4CCCCC4)CC3)c3noc4c3c2C(=O)c2ccccc2-4)cc1.[Na+] [Compound I, Sodium 4-((3-(4-cyclohexylpiperazin-1-yl)-6-oxo-6H-anthra[1,9-cd]isoxazol-5-yl)amino)benzoate]	no such effect or other abnormality was observed	~100	no instability	no instability	efficacious in relieving the pain	significantly reduced mechanical allodynia	significantly reduced mechanical allodynia	–
O=C(O)c1ccc(Nc2cc(N3CCN(C4CCCCC4)CC3)c3noc4c3c2C(=O)c2ccccc2-4)cc1 [Compound C]	–	–	–	–	–	–	–	~50

— patent US9718794B2, “Crystalline forms of tyrosine kinase inhibitors and their salts” (Purdue Pharma L.P., priority 2013, dated 2017)
